Laboratory results taken from PMC3608355, “Amino Acid Derivatives as New Zinc Binding Groups for the Design of Selective Matrix Metalloproteinase Inhibitors” (Journal of Amino Acids, 2013).
Structures can show the parent of a compound that is named as a salt. Where two headings read alike, the source gives them in different places. Values belong to the molecule of their own block, whether it stands above or below them.

Assays:
[1] = biological target: T1, MMP-2 (Homo sapiens, UniProt P08253)
T1 sequence (P08253 110-660): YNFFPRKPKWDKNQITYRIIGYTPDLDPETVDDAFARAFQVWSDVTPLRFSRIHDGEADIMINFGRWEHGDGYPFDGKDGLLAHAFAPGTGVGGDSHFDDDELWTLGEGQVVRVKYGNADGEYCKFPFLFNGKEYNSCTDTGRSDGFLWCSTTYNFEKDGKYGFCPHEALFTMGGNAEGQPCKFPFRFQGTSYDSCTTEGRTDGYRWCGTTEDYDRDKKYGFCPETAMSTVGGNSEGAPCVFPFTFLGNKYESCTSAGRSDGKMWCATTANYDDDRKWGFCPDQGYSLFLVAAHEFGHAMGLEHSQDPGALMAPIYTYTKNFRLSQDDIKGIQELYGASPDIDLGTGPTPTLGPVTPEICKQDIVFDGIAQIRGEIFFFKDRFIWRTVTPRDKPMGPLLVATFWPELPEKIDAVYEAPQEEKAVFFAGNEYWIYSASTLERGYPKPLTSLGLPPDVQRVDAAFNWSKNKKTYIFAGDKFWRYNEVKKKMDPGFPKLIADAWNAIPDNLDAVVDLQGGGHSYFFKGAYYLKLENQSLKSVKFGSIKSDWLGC

[2] = biological target: T1, MMP-2; assay: biochemical
[3] = biological target: MMP-8 (Homo sapiens, UniProt P22894); assay: MMP inhibition fluorometric assay, MMP-8; details: for ΔG exp MMP-8: experimental binding energy from activity data, racemic mixture tested
[4] = biological target: T2, MMP-1 (Homo sapiens, UniProt P03956); assay: MMP inhibition fluorometric assay, MMP-1; details: for ΔG exp MMP-1: experimental binding energy from activity data, racemic mixture tested
T2 sequence (P03956 100-469): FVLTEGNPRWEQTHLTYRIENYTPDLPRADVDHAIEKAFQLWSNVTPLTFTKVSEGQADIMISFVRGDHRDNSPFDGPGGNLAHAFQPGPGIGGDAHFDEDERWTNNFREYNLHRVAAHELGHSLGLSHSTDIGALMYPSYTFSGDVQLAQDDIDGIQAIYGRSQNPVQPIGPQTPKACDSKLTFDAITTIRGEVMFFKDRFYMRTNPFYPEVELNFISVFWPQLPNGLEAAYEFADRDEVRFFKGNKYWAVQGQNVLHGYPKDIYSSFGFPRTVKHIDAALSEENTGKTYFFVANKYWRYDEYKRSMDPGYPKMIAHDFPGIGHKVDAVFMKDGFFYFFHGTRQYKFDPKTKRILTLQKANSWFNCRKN

[5] = biological target: MMP-9 (Homo sapiens, UniProt P14780); assay: MMP inhibition fluorometric assay, MMP-9; details: for ΔG exp MMP-9: experimental binding energy from activity data, racemic mixture tested
[6] = experimental binding energy from activity data, chiral compounds tested as racemic mixture
[7] = ratio of IC50 values versus 25a

Sequence of MMP-8 (P22894 101-467): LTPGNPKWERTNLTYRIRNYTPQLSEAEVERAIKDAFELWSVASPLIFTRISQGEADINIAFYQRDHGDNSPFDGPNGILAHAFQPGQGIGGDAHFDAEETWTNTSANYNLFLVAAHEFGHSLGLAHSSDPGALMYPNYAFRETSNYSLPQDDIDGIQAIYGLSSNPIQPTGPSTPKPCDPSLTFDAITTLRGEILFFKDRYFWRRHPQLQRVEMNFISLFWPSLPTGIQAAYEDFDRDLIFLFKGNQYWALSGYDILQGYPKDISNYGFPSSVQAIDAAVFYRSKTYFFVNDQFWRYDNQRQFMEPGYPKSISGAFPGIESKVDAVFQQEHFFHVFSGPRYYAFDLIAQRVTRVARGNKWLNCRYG
Sequence of MMP-9 (P14780 107-707 limits assumed): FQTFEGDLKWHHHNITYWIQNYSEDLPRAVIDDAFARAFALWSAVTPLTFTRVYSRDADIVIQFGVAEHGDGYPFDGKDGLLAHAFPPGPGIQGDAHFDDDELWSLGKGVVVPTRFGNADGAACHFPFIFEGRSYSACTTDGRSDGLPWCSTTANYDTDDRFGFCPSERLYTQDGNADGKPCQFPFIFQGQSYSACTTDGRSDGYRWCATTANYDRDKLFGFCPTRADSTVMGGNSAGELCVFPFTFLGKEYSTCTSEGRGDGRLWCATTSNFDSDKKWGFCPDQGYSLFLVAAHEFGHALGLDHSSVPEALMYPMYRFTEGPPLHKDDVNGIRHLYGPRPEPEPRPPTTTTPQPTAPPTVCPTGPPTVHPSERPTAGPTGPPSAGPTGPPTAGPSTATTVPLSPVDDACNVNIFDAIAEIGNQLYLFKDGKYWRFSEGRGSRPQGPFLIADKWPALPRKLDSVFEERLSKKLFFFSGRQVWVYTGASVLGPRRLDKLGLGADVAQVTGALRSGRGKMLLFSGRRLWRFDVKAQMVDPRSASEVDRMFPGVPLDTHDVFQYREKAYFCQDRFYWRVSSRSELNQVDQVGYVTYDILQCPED

Structure (SMILES): O=C(O)C(F)(F)F.O=C(O)C(F)(F)F.[N-]=[N+]=NC[C@@H](N)Cc1c[nH]cn1 [1l S]
ΔG exp (binding energy toward MMP-2) [1, 6]: -4.524 kcal

Structure (SMILES): N#CCC(N)CC#N.O=C(O)C(F)(F)F [Compound 1b, 3-Aminopentanedinitrile Trifluoroacetate]
ΔG exp (binding energy toward MMP-2) [1]: -4.428 kcal
IC50 [2]: 560 ± 52 µM

Structure (SMILES): Cl.O=S(=O)(N[C@H](CO)Cc1c[nH]cn1)c1ccc(Oc2ccccc2)cc1 [25e S]
ΔG exp (binding energy toward MMP-2) [1, 6]: -5.069 kcal
ΔG exp MMP-8 [3]: -4.740 kcal
ΔG exp MMP-1 [4]: -4.524 kcal
ΔG exp MMP-9 [5]: -5.042 kcal

Structure (SMILES): O=S(=O)(N[C@H](CO)CS)c1ccc(Oc2ccccc2)cc1 (racemic) [25d R]
ΔG exp (binding energy toward MMP-2) [1, 6]: -5.396 kcal
ΔG exp MMP-8 [3]: -6.870 kcal
ΔG exp MMP-1 [4]: -4.224 kcal
ΔG exp MMP-9 [5]: -6.705 kcal

IC50 [3]: 9.1 ± 2.3 µM
fold more potent than 25a on MMP-8 [3, 7]: 10 fold
IC50 [4]: 819 ± 116 µM
IC50 [5]: 12 ± 4 µM
fold more potent than 25a on MMP-9 [5, 7]: 13 fold
IC50 [2]: 110 ± 10 µM
Structure (SMILES): O=S(=O)(NC(CO)CS)c1ccc(Oc2ccccc2)cc1 (centres unmarked) [Compound 25d, N-(1-Hydroxy-3-mercaptopropan-2-yl)-4-phenoxybenzenesulfonamide]

Structure (SMILES): [N-]=[N+]=NCC(N)Cc1c[nH]cn1 (centres unmarked) [Compound 1l, 1-Azido-3-(1H-imidazol-4-yl)propan-2-amine Ditrifluoroacetate]
IC50 [2]: 480 ± 25 µM

Structure (SMILES): N[C@H](CO)CS.O=C(O)C(F)(F)F [1d R]
ΔG exp (binding energy toward MMP-2) [1, 6]: -4.319 kcal

melting point: 196 to 198 °C
Structure (SMILES): NC(CS)Cc1c[nH]cn1 (centres unmarked) (as salt: TFA) [Compound 1g]

Structure (SMILES): Cl.O=S(=O)(N[C@@H](CO)Cc1c[nH]cn1)c1ccc(Oc2ccccc2)cc1 (racemic) [25e R]
ΔG exp (binding energy toward MMP-2) [1, 6]: -5.069 kcal
ΔG exp MMP-8 [3]: -4.740 kcal
ΔG exp MMP-1 [4]: -4.524 kcal
ΔG exp MMP-9 [5]: -5.042 kcal

Structure (SMILES): N#CC[C@@H](N)CS.O=C(O)C(F)(F)F [1h R]
ΔG exp (binding energy toward MMP-2) [1, 6]: -4.497 kcal

Structure (SMILES): N#CCC(N)CS (centres unmarked) [Compound 1h, 3-Amino-4-mercaptobutanenitrile Trifluoroacetate]
IC50 [2]: 500 ± 49 µM

IC50 [2]: 450 ± 23 µM
Structure (SMILES): NC(CO)Cc1c[nH]cn1 (centres unmarked) [Compound 1e, 2-Amino-3-(1H-imidazol-4-yl)propan-1-ol Ditrifluoroacetate]

Structure (SMILES): N#CC[C@@H](N)CO.O=C(O)C(F)(F)F [1i R]
ΔG exp (binding energy toward MMP-2) [1, 6]: -4.210 kcal

Structure (SMILES): N#CC[C@H](N)CS.O=C(O)C(F)(F)F [1h S]
ΔG exp (binding energy toward MMP-2) [1, 6]: -4.497 kcal

Structure (SMILES): [N-]=[N+]=NCC(N)CS (centres unmarked) [Compound 1j, 2-Amino-3-azidopropane-1-thiol Trifluoroacetate]
IC50 [2]: 520 ± 57 µM

Structure (SMILES): N#CC[C@H](N)CO.O=C(O)C(F)(F)F [1i S]
ΔG exp (binding energy toward MMP-2) [1, 6]: -4.210 kcal

Structure (SMILES): N[C@@H](CO)Cc1c[nH]cn1.O=C(O)C(F)(F)F.O=C(O)C(F)(F)F [1e R]
ΔG exp (binding energy toward MMP-2) [1, 6]: -4.565 kcal

ΔG exp (binding energy toward MMP-2) [1, 6]: -5.655 kcal
IC50 [3]: 98 ± 8 µM
ΔG exp MMP-8 [3]: -5.460 kcal
IC50 [4]: 1030 ± 160 µM
ΔG exp MMP-1 [4]: -4.074 kcal
IC50 [5]: 160 ± 15 µM
ΔG exp MMP-9 [5]: -5.178 kcal
IC50 [2]: 71 ± 1.9 µM
Structure (SMILES): O=S(=O)(NC(CO)CO)c1ccc(Oc2ccccc2)cc1 [Compound 25a, N-(1,3-Dihydroxypropan-2-yl)-4-phenoxybenzenesulfonamide]

Structure (SMILES): N[C@@H](CO)CS.O=C(O)C(F)(F)F [1d S]
ΔG exp (binding energy toward MMP-2) [1, 6]: -4.319 kcal

Structure (SMILES): NC(CO)CS (centres unmarked) [Compound 1d, 2-Amino-3-mercaptopropan-1-ol Trifluoroacetate]
IC50 [2]: 674 ± 88 µM

Structure (SMILES): CC(=O)NO [AHA, acetohydroxamic acid, reference compound]
IC50 ([1]; read-out: IC50 (μM ± SD), enzymatic inhibition of MMP-2, catalytic domain of MMP-2, ZBG library, value ± SD): 10000 ± 630 µM

Structure (SMILES): NC(CS)CS.O=C(O)C(F)(F)F [Compound 1f, 2-Aminopropane-1,3-dithiol Trifluoroacetate]
ΔG exp (binding energy toward MMP-2) [1]: -4.333 kcal
IC50 [2]: 666 ± 90 µM

ΔG exp (binding energy toward MMP-2) [1, 6]: -4.837 kcal
IC50 [2]: 280 ± 24 µM
Structure (SMILES): NC(CO)CO [Compound 1a, 2-aminopropane-1,3-diol]

Structure (SMILES): N#CCC(N)CO.O=C(O)C(F)(F)F (centres unmarked) [Compound 1i, 3-Amino-4-hydroxybutanenitrile Trifluoroacetate]
melting point: 131 to 133 °C
IC50 [2]: 807 ± 98 µM

Structure (SMILES): N[C@H](CO)Cc1c[nH]cn1.O=C(O)C(F)(F)F.O=C(O)C(F)(F)F [1e S]
ΔG exp (binding energy toward MMP-2) [1, 6]: -4.565 kcal

IC50 [3]: 330 ± 21 µM
IC50 [4]: 480 ± 30 µM
IC50 [5]: 200 ± 15 µM
IC50 [2]: 190 ± 8.7 µM
Structure (SMILES): O=S(=O)(NC(CO)Cc1c[nH]cn1)c1ccc(Oc2ccccc2)cc1 (centres unmarked) [Compound 25e, N-(1-Hydroxy-3-(1H-imidazol-4-yl)propan-2-yl)-4-phenoxybenzenesulfonamide Hydrochloride]

Structure (SMILES): O=C(O)C(F)(F)F.O=C(O)C(F)(F)F.[N-]=[N+]=NC[C@H](N)Cc1c[nH]cn1 [1l R]
ΔG exp (binding energy toward MMP-2) [1, 6]: -4.524 kcal

Structure (SMILES): O=S(=O)(N[C@@H](CO)CS)c1ccc(Oc2ccccc2)cc1 [25d S]
ΔG exp (binding energy toward MMP-2) [1, 6]: -5.396 kcal
ΔG exp MMP-8 [3]: -6.870 kcal
ΔG exp MMP-1 [4]: -4.224 kcal
ΔG exp MMP-9 [5]: -6.705 kcal
